Assay results reported in PubChem BioAssay (NCI).
Values joined by “and” are separate entries in the source; they are usually repeats but may differ in a detail not shown here. Equal entries are not always repeated.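 Assay format: 96-well plates, 48-hour exposure. At the GI50, growth is halved. TGI: concentration producing complete growth inhibition.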

System: MDA-MB-468 breast
Assay: DTP human tumour cell line panel, 48 h

Compound: CC(=O)O[C@H]1CC[C@]2(C)[C@H]3C(=O)C=C4[C@@H]5C[C@](C)(C(=O)N6CCCNCC6)CC[C@]5(C)CC[C@@]4(C)[C@]3(C)CC[C@H]2C1(C)C
- GI50: 1700 nM
- TGI: 3560 nM

Compound: N#C/C(=C/c1cccs1)c1cccs1
- GI50: 24100 nM
- TGI: > 100000 nM

Compound: CCN(CC)CCNc1ccc(CO)c2sc3ccccc3c(=O)c12
- GI50: 1250 nM
- TGI: 3030 nM

Compound: COc1cc(/C=C\c2cc(/C=C\c3ccc(O)c(OC)c3)n(C(=O)Nc3ccc(C(F)(F)F)cc3)n2)ccc1O
- GI50: 2300 nM
- TGI: 6250 nM

Compound: CC(C)NCCCNC1=C(Cl)C(=O)c2ccccc2C1=O
- GI50: 2850 nM
- TGI: 8780 nM

Compound: COc1cccc2c1C(=O)c1c(O)c3c(c(O)c1C2=O)C[C@@](O)(C(=O)COC(=O)c1cccnc1)C[C@@H]3OC1CC(N)C(O)C(C)O1 (stereo partly specified)
- GI50: 136 nM
- TGI: 465 nM

Compound: Cc1ccc2nc(NC(=O)CSC(=S)N3CCN(Cc4ccccc4)CC3)sc2c1
- GI50: > 100000 nM
- TGI: > 100000 nM

Compound: COc1ccc(OC)c(-c2cn3nc(-c4c[nH]c5ccc(Br)cc45)sc3n2)c1
- GI50: 2940 nM
- TGI: 8410 nM

Compound: CN1CCN(c2ccc3nc(-c4ccc5nc(-c6ccc(C(F)(F)F)cc6)[nH]c5c4)[nH]c3c2)CC1
- GI50: 1850 nM
- TGI: 3650 nM

Compound: CCCCCCCCOC(=O)c1cc(O)c(O)c(O)c1
- GI50: 3490 nM
- TGI: 16700 nM

Compound: CCCCCn1ncc(-c2c(O)c(O)cc3c(O)c(-c4c(C)cc5c(-c6cnn(CCCCC)n6)c(O)c(O)cc5c4O)c(C)cc23)n1
- GI50: 102 nM
- TGI: 3760 nM

Compound: COc1ccc(CNCCCN2C(=O)c3ccc4c5c(ccc(c35)C2=O)C(=O)N(CCCNCCCCNCCCN)C4=O)c(OC)c1OC
- GI50: 155 nM
- TGI: 334 nM

Compound: CCCCn1c(=O)c(/C=C/C(=O)/C=C/c2ccc(O)c(OC)c2)cc2ccc(Cl)cc21
- GI50: 1460 nM
- TGI: 4370 nM

Compound: CC(C)(C)c1ccc(NC(=O)c2cc(=O)c3ccccc3[nH]2)c(C(C)(C)C)c1O
- GI50: 7870 nM
- TGI: 21900 nM

Compound: Cc1cc2cc(Oc3ccnc(Nc4cccc(CS(=O)(=O)NCCN(C)C)c4)n3)ccc2[nH]1
- GI50: 6490 nM
- TGI: 21300 nM

Compound: CCCN(CCC)c1ccc(C=O)c(OC)c1
- GI50: 6220 nM
- TGI: 63000 nM

Compound: COc1ccc(-n2nc(C)c3c(Nc4ccc(NC(=O)Nc5cc(C(F)(F)F)ccc5F)cc4)ncnc32)cc1
- GI50: 2480 nM
- TGI: 6140 nM

Compound: CCOc1ccc2c(-c3ccnc(Nc4cccc(C(F)(F)F)c4)n3)cnn2n1
- GI50: 1140 nM
- TGI: > 25000 nM

Compound: CC(=O)OC1CC(C)c2c1ncnc2N1CCN(C(=O)OC(C)(C)C)CC1 (stereo unspecified)
- GI50: 33900 nM
- TGI: > 100000 nM

Compound: O=c1cc(-c2ccccc2)oc2cc(OCc3cn(Cc4ccc(F)cc4)nn3)cc(O)c12
- GI50: 20000 nM
- TGI: > 100000 nM

Compound: COc1ccc(S(=O)(=O)N2CCCCC2)cc1NC(=O)c1[nH]c(C)c2c1CCCCC2=O
- GI50: 468 nM
- TGI: 3900 nM

Compound: C=C(C)[C@@H]1CC[C@]2(c3ncc(C)o3)CC[C@]3(C)[C@H](CC[C@@H]4[C@@](C)(CCC#N)[C@H](C(=C)C)CC[C@]43C)[C@@H]12
- GI50: 3000 nM
- TGI: 12900 nM

Compound: CCCCCCCCCCCCCCCC[N+](C)(C)C
- GI50: 118 nM and 328 nM
- TGI: 361 nM and 1930 nM

Compound: CCc1nc2cc(/C=C/C(=O)NO)c(F)cc2c(=O)n1CCc1ccccc1
- GI50: 474 nM
- TGI: 2920 nM

Compound: COc1ncnc2c1ncn2C/C(Br)=C(\Br)CCl
- GI50: 1560 nM
- TGI: 3290 nM

Compound: COc1ccc(/C=C2/CCOC2=O)cc1
- GI50: > 100000 nM
- TGI: > 100000 nM

Compound: CN1CCN(c2ccc(NC3=C(Cl)C(=O)c4ncccc4C3=O)cc2C(F)(F)F)CC1
- GI50: 746 nM
- TGI: 2690 nM

Compound: C[C@]1(O)CC(=O)[C@]2(O)C3=C(C=C[C@]2(O)C1)C(=O)c1c(O)cccc1C3=O
- GI50: 1700 nM
- TGI: 3870 nM

Compound: COc1cc2c(C#N)n3c(c2cc1OC)C(=O)C(c1ccccc1)Oc1ccccc1-3 (stereo unspecified)
- GI50: 4680 nM
- TGI: > 100000 nM

Compound: CN([N-]C(=O)CC(=O)[N-]N(C)C(=S)c1ccccc1)C(=S)c1ccccc1.[Cu+2]
- GI50: < 10 nM
- TGI: 38.6 nM

Compound: CCN(CCc1ccc(F)cc1)c1ccc(CO)c(Cl)c1
- GI50: 217 nM
- TGI: 724 nM

Compound: COc1cccc2c1[C@H](OC)[C@]13O[C@@]1(C2=O)[C@H](O)[C@H](C)[C@@](O)(C(=O)[C@@H]1O[C@H]1C)[C@@H]3O
- GI50: 204 nM
- TGI: 480 nM

Compound: Cc1cc(C)c(S(=O)(=O)Oc2ccccc2[N+](=O)[O-])c(C)c1
- GI50: 1480 nM
- TGI: 5620 nM
